Source: the NIST ThermoML archive (doi:10.1016/j.jct.2014.10.008)

Test: osmotic coefficient (dimensionless); mn = molality of the nth substance listed, in mol/kg
Details: 101 kPa, Liquid, Vapor pressure osmometer - Knauer K-7000

CCCC[N+]1(C)CCCC1.N#CN=C=[N-] [1-butyl-1-methylpyrrolidinium dicyanamide] + O
Details | osmotic coefficient
313.15 K, m1 = 0.0272 | 0.915
313.15 K, m1 = 0.0491 | 0.849
313.15 K, m1 = 0.0864 | 0.734
313.15 K, m1 = 0.1088 | 0.697
313.15 K, m1 = 0.1499 | 0.68
313.15 K, m1 = 0.1968 | 0.627
313.15 K, m1 = 0.3968 | 0.503
313.15 K, m1 = 0.5057 | 0.471
313.15 K, m1 = 0.7825 | 0.433
313.15 K, m1 = 0.9665 | 0.416
313.15 K, m1 = 1.474 | 0.373
323.15 K, m1 = 0.0272 | 0.982
323.15 K, m1 = 0.0512 | 0.879
323.15 K, m1 = 0.0928 | 0.855
323.15 K, m1 = 0.112 | 0.846
323.15 K, m1 = 0.1499 | 0.81
323.15 K, m1 = 0.1968 | 0.747
323.15 K, m1 = 0.2912 | 0.673
323.15 K, m1 = 0.3968 | 0.656
323.15 K, m1 = 0.5057 | 0.608
323.15 K, m1 = 0.7825 | 0.538
323.15 K, m1 = 0.9665 | 0.48
323.15 K, m1 = 1.488 | 0.405
328.15 K, m1 = 0.024 | 1.05
328.15 K, m1 = 0.0896 | 0.859
328.15 K, m1 = 0.1248 | 0.815
328.15 K, m1 = 0.2032 | 0.747
328.15 K, m1 = 0.2913 | 0.682
328.15 K, m1 = 0.4017 | 0.642
328.15 K, m1 = 0.5041 | 0.585
328.15 K, m1 = 0.7825 | 0.559
328.15 K, m1 = 0.973 | 0.498
328.15 K, m1 = 1.496 | 0.424

CCCCCCCC[n+]1ccn(C)c1.[Cl-] [1-methyl-3-octylimidazolium chloride] + O
Details | osmotic coefficient
313.15 K, m1 = 0.0346 | 1.05
313.15 K, m1 = 0.0491 | 1
313.15 K, m1 = 0.0809 | 0.816
313.15 K, m1 = 0.1329 | 0.727
313.15 K, m1 = 0.182 | 0.681
313.15 K, m1 = 0.2455 | 0.617
313.15 K, m1 = 0.2917 | 0.555
313.15 K, m1 = 0.3582 | 0.531
313.15 K, m1 = 0.4679 | 0.48
313.15 K, m1 = 0.5228 | 0.45
313.15 K, m1 = 0.6037 | 0.424
313.15 K, m1 = 0.7323 | 0.383
313.15 K, m1 = 0.8825 | 0.343
313.15 K, m1 = 1.072 | 0.317
313.15 K, m1 = 1.356 | 0.289
313.15 K, m1 = 1.771 | 0.266
323.15 K, m1 = 0.0419 | 1.1
323.15 K, m1 = 0.052 | 1.06
323.15 K, m1 = 0.0858 | 0.946
323.15 K, m1 = 0.1118 | 0.918
323.15 K, m1 = 0.182 | 0.726
323.15 K, m1 = 0.2455 | 0.675
323.15 K, m1 = 0.2917 | 0.633
323.15 K, m1 = 0.3582 | 0.587
323.15 K, m1 = 0.4679 | 0.54
323.15 K, m1 = 0.5228 | 0.498
323.15 K, m1 = 0.6037 | 0.464
323.15 K, m1 = 0.7323 | 0.424
323.15 K, m1 = 0.8825 | 0.384
323.15 K, m1 = 1.072 | 0.345
323.15 K, m1 = 1.356 | 0.31
323.15 K, m1 = 1.771 | 0.3
328.15 K, m1 = 0.0361 | 1.14
328.15 K, m1 = 0.0506 | 1.12
328.15 K, m1 = 0.0852 | 1.08
328.15 K, m1 = 0.1329 | 1.07
328.15 K, m1 = 0.1791 | 1.02
328.15 K, m1 = 0.2484 | 0.962
328.15 K, m1 = 0.2947 | 0.957
328.15 K, m1 = 0.3568 | 0.929
328.15 K, m1 = 0.468 | 0.906
328.15 K, m1 = 0.5243 | 0.875
328.15 K, m1 = 0.6052 | 0.844
328.15 K, m1 = 0.7352 | 0.753
328.15 K, m1 = 0.8826 | 0.689
328.15 K, m1 = 1.072 | 0.624
328.15 K, m1 = 1.359 | 0.556
328.15 K, m1 = 1.774 | 0.479
